Experimental data reported in patent publication US8119660B2, “Small-molecule inhibitors of the androgen receptor” (The Regents of the University of California, priority 2007, dated 2012).
Positions count from the first letter of the chain named. Entries after “also recorded” stand apart in the source; their conditions may differ. Structures can show the parent of a compound that is named as a salt.

Assays:
[1] = molecular target: T1, endogenous AR with a mutation (T877A), LNCaP cells (Homo sapiens, UniProt P10275, T878A); assay: PSA-luciferase reporter assay in LNCaP cells with DHT; format: cell-based
T1 construct: that each express endogenous AR; endogenous in cells; host or cells: LNCaP
T1 sequence (P10275 1-920 T878A): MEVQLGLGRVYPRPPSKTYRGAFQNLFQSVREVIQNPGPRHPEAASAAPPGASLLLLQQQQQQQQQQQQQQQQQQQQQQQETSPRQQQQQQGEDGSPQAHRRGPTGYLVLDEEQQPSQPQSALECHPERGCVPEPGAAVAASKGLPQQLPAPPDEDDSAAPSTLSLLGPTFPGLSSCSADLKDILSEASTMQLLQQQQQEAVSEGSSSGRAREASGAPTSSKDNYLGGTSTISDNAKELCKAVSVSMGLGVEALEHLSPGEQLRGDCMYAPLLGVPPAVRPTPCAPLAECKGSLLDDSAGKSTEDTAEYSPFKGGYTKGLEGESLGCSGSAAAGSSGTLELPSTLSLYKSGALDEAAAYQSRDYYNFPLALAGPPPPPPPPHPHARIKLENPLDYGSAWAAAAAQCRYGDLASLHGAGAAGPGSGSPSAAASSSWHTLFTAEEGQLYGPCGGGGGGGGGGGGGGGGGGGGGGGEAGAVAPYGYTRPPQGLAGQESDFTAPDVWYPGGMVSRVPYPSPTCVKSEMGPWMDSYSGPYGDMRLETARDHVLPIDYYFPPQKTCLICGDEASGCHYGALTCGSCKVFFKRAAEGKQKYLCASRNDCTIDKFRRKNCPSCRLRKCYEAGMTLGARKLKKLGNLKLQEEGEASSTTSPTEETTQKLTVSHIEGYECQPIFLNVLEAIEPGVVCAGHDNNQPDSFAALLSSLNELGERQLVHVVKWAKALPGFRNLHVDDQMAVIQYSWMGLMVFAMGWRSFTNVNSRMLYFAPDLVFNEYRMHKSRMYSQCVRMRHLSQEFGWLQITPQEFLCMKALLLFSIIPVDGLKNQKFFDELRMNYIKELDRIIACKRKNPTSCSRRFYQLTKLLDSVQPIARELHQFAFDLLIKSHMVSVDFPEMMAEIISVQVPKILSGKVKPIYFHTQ
Description: (§1) Cells were transfected with two reporter plasmids, a PSA-luciferase construct (androgen responsive), and an SV40-renilla luciferase construct as an internal control. The following day, the cells were split and drugs added in the presence of 3 nM DHT. Luciferase production was measured the following day (Dual luciferase assay kit, Promega).
(§2) Synergism can be defined as a combination index of less than one, using the non-exclusive assumption described by Chou et al. (Chou, T. C. and P. Talalay, Quantitative analysis of dose-effect relationships: the combined effects of multiple drugs or enzyme inhibitors. Adv Enzyme Regul, 1984. 22: p. 27-55).

[2] = molecular target: T2, endogenous wild-type AR, LAPC4 cells (Homo sapiens, UniProt P10275); assay: PSA-luciferase reporter assay in LAPC4 cells with DHT; format: cell-based; conditions: 3 nM DHT
T2 construct: that each express endogenous AR; endogenous in cells; host or cells: LAPC4
T2 sequence (P10275 1-920): T1 sequence (P10275 1-920 T878A) with A878T
Description: as §1, §2

LAPC4 cells = assay: Cell proliferation (DNA content, DAPI), LAPC4; format: cell-based, human; conditions: LAPC4, 3 nM DHT, seven days; PP 100 nM, HH 100 nM, BiC 1 μM
Excerpt: LN-AR cells were created by retroviral infection of a high-expressing AR vector into LNCaP cells, and proliferate independent of androgen in cell culture, unlike their parental line (Chen, C. D., et al., Molecular determinants of resistance to antiandrogen therapy. Nat Med, 2004. 10(1): p. 33-9). HEK293 cells were used as a control. Cells were transferred to charcoal-stripped media two days before they were split and plated in quadruplicate at a density of approximately 20,000 cells/well in 48-well plates. […] Media were changed every day, using a single preparation to ensure consistent compound concentrations. Proliferation was determined by measuring the DNA content of the cells in each well. Each day, the cells in four wells were fixed in 100% cold methanol, followed by staining for 5 min at RT with 0.2 ng/mL 4′,6-diamidino-2-phenylindole (DAPI) in PBS. The cells were washed once in PBS, then read on a fluorescence plate reader using 365/439 excitation/emission wavelengths. LAPC4 and LNCaP cells proliferated to a much greater degree in the presence of DHT, while LN-AR cells proliferated in the presence and absence of DHT.

[3] = Pharmacokinetics in mice, drug levels by mass spectrometry; format: in vivo; conditions: for concentration at […]: 0.25 hr
Description: Serum samples were obtained at fixed time intervals, and the drug levels determined by mass spectrometry.

Cc1nccc2c1[nH]c1cc(O)ccc12 [HH, harmol hydrochloride]
IC50 ([1]; LNCaP cells, 3 nM DHT): 127 nM
Mode of antagonism: effect on DHT dose-response of PSA-luciferase ([1]; LNCaP, DHT titrated, moderate dose of each inhibitor, hydrochloride): inhibited maximal DHT-induced activation; also recorded: pattern consistent with a non-competitive antagonist
IC50 [2]: 106 nM
Inhibition of cell growth (LAPC4 cells): not effective
concentration at […] ([3]; FVB, mouse, plasma, mice, IP, 5 mg/kg single dose): 32.3 ng/mL
concentration at 1 h ([3]; FVB, mouse, plasma, mice, IP, 5 mg/kg single dose, 1 hr): 5 ng/mL
concentration at […] ([3]; FVB, mouse, plasma, mice, PO, 5 mg/kg single dose): 6.7 ng/mL
Clearance / half-life in words ([3]; Wild-type FVB mice, single intraperitoneal injection): rapidly cleared
